Values joined by “and” are separate entries in the source; they are usually repeats but may differ in a detail not shown here. Equal entries are not always repeated.
Tests used:
[1] = Cell-based assay, TGFb1 (Cell IC50)
[2] = system: BMP4; assay: BMP4 HTRF assay; format: cell-based
[3] = target: T1, ALK1 (Bos taurus, UniProt A4FUX2); assay: HTRF pSMAD1 cell-based ALK1 assay (BAOEC cells, BMP9 as agonist); set-up: species or system Bovine
T1 construct: The BAOEC cell line was employed for the measurement of ALK1 activity using BMP9 as the agonist; host or cells: BAOEC (bovine aortic endothelial cells)
T1 sequence (A4FUX2 23-503): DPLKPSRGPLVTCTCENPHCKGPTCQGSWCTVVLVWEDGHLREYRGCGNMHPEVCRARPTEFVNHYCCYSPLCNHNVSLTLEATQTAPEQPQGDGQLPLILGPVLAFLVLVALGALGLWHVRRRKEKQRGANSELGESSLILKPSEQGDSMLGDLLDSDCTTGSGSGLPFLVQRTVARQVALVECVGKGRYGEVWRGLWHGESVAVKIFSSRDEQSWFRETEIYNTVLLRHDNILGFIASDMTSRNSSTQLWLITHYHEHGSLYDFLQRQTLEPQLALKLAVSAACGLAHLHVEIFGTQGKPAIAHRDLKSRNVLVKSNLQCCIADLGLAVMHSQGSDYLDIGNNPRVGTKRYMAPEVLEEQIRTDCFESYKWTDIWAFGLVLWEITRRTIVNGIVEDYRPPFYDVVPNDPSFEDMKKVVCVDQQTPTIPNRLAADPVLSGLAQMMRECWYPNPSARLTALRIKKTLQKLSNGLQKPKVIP
Method: 2. HTRF Cell-Based ALK1 and ALK2 Assays in 384-Well Plate Format We have developed a cell based ALK1 kinase assay and a cell-based ALK2 assay. The BAOEC cell line was employed for the measurement of ALK1 activity using BMP9 as the agonist. The C2C12 cell line was selected for the measurement of ALK2 activity using BMP6 as the agonist. The kinase specificity was defined by the specific cell line and agonist. The kinase activity was determined by the status of SMD 1/5/8 phosphorylation stimulated by the agonist.
HyClone Fetal Bovine Serum was obtained from GE healthcare life sciences (Logan, Utah). BMP6 and BMP9 were purchased from R&D System. […] The compound plates and the white solid MB assay plates were purchased from Greiner Bio-one (Monroe, N.C.).
HTRF optimization experiments were performed in 384 well plate format. […] Pre-starved cells were then plated in 384 well plate in the starvation medium (containing in 0.1% FBS). After 4 hours, compounds were added to the assay plate and incubated for 30 minutes. The assay plate was then added with BMP6 for C2C12 cells or BMP9 for BAOEC cells and incubated for 30 minutes.
HTRF assay was performed to measure the status of SMAD 1 phosphorylation after stimulated with the agonist (Table 3). This HTRF phospho SMAD1 cell assay was developed and optimized for the homogenous detection of phospho SMAD 1 levels in cells. […] The plate was incubated at room temperature for overnight.

SMILES	IC50 [1] [nM]	IC50 [2] [nM]	IC50 [3]
C[C@@H]1CNC[C@H](C)N1c1ccc(-c2cnc3c(-c4cccc5c(C(N)=O)cccc45)cnn3c2)cc1 [Compound 10, 5-(6-(4-((2S,6R)-2,6-dimethylpiperazin-1-yl)phenyl)pyrazolo[1,5-a]pyrimidin-3-yl)-1-naphthamide]	353	140	44 nM and 20 nM
N/C(=N/O)c1ccc(-c2cnn3cc(-c4ccc(N5CCNCC5)cc4)cnc23)c2ccccc12 [Compound 15, N′-hydroxy-4-(6-(4-(piperazin-1-yl)phenyl)pyrazolo[1,5-a]pyrimidin-3-yl)-1-naphthimidamide]	2660		
CC(C)(CN1CCCCC1)Oc1ccc(-c2cnc3c(-c4cccc5c(C(N)=O)cccc45)cnn3c2)cc1 [Compound 18, 5-(6-(4-((2-methyl-1-(piperidin-1-yl)propan-2-yl)oxy)phenyl)pyrazolo[1,5-a]pyrimidin-3-yl)-1-naphthamide]	270		
C[C@@H]1CNC[C@H](C)N1c1ccc(-c2cnc3c(-c4cccc(S(C)(=O)=O)c4)cnn3c2)cc1 [Compound 82, 6-(4-((2R,6S)-2,6-dimethylpiperazin-1-yl)phenyl)-3-(3-(methylsulfonyl)phenyl)pyrazolo[1,5-a]pyrimidine]		180	190 nM
CC(O)c1cccc(-c2cnn3cc(-c4ccc(N5[C@H](C)CNC[C@@H]5C)cc4)cnc23)c1 (stereo partly drawn) [Compound 83, 1-(3-(6-(4-((2R,6S)-2,6-dimethylpiperazin-1-yl)phenyl)pyrazolo[5-a]pyrimidin-3-yl)phenyl)ethanol]	956		100 nM
C[S+](=O)([O-])c1cccc(-c2cnn3cc(-c4ccc(OC5(CN6CCCCC6)COC5)cc4)cnc23)c1 [Compound 93, 3-(3-(methylsulfonyl)phenyl)-6-(4-((3-(piperidin-1-ylmethyl)oxetan-3-yl)oxy)phenyl)pyrazolo[1,5-a]pyrimidine]	100000	100	180 nM
C[C@@H]1CNC[C@H](C)N1c1ccc(-c2cnc3c(-c4cccc(C(C)(C)O)c4)cnn3c2)cc1 [Compound 103, 2-(3-(6-(4-((2R,6S)-2,6-dimethylpiperazin-1-yl)phenyl)pyrazolo[1,5-a]pyrimidin-3-yl)phenyl)propan-2-ol]		130	14 nM
CC[S+](=O)([O-])c1cccc(-c2cnn3cc(-c4ccc(N5[C@H](C)CNC[C@@H]5C)cc4)cnc23)c1 [Compound 104, 6-(4-((2R,6S)-2,6-dimethylpiperazin-1-yl)phenyl)-3-(3-(ethylsulfonyl)phenyl)pyrazolo[1,5-a]pyrimidine]		230	71 nM
C[S+](=O)([O-])c1cccc(-c2cnn3cc(-c4ccc(OC5(Cn6ccnc6)COC5)cc4)cnc23)c1 [Compound 105, 6-(4-((3-((1H-imidazol-1-yl)methyl)oxetan-3-yl)oxy)phenyl)-3-(3-(methylsulfonyl)phenyl)pyrazolo[1,5-a]pyrimidine]		9	140 nM
C[C@@H]1CNC[C@H](C)N1c1ccc(-c2cnc3c(-c4cccc([S+](=O)([O-])C5CC5)c4)cnn3c2)cc1 [Compound 111, 3-(3-(cyclopropylsulfonyl)phenyl)-6-(4-((2R,6S)-2,6-dimethylpiperazin-1-yl)phenyl)pyrazolo[1,5-a]pyrimidine]			850 nM
